These results are taken from patent publication US8354400B2, “Benzoxazole compounds and methods of use” (Eisai R&D Co., Ltd., priority 2008, dated 2013).

Structures are written as SMILES. “Also recorded” adds a separate entry of the source.

What all share (assay type): in vivo
For series [1], the system named is collagen induced arthritis in male DBA/1J mice. Nature of the series: Type II collagen induced arthritis model. The conditions noted are these: 5 days per week from day 9. Here is the method:
The type II collagen induced arthritis model was used for the purpose of in vivo evaluation of Compound 2 for the treatment of arthritis. In this model, arthritis was induced in male DBA/1J (Jackson Labs) mice using complete Freund's adjuvant. A first priming/immunization dose of 300 μg of bovine type II collagen emulsified in an equal volume of complete Freund's adjuvant is injected subcutaneously (s.c.) at least 5 mm from the base of the tail.
Starting on day 9 after immunization and each day for 5 days per week thereafter, each mouse was dosed orally with 6 mg/kg, 20 mg/kg, or 60 mg/kg of Compound 2 or placebo 5 days per week.
A second immunization dose was administered 21 days after the first immunization by s.c. injection above the first immunization site of 200 μg of bovine type II collagen emulsified in an equal volume of incomplete Freund's adjuvant. To further promote arthritis progression, animals receive an intraperitoneal injection of lipopolysaccharide (LPS) (1 μg/mouse in PBS) three days after the second immunization.
At 21, 25, 28, and 31 days after the first immunization dose, the animals were examined for evidence of paw swelling and assigned an arthritis score at each time point.

In series [2] the test system is MRL/MpJ-faslpr/J mice (MRL/lpr). Nature of the series: MRL/MpJ-faslpr/J spontaneous lupus model, Experiment 1. Here is the method:
In this experiment, MRL/MpJ-faslpr/J mice (“MRL/lpr”) obtained from Jackson Laboratories were dosed orally with Compound 23 at 20 or 60 mg/kg in water. MRL/lpr mice have a defect in lymphocyte death and spontaneously develop autoantibodies including the anti-nuclear antibodies found in human systemic lupus erythematosus (SLE). Dosing was performed daily five days a week beginning at 5 weeks of age. Blood and urine samples were taken prior to dosing on day one and every three to four weeks thereafter. An ELISA assay was used to measure serum anti-dsDNA before and after 7 weeks of dosing. The assay was conducted using a Mouse Anti-dsDNA Total Ig Qualitative ELISA kit (Alpha Diagnostic International, San Antonio. TX).
Anti-nuclear antibodies (“ANA”) in this experiment were also examined by exposing fixed […] cells, obtained as fixed samples on slides from Antibodies Inc., to diluted serum from the mice dosed with Compound 23 at 20 or 60 mg/kg, as described above, and staining for mouse immunoglobulin using the kit reagents supplied by Antibodies Inc. according to the kit instructions. Intensity of fluorescent staining was then read by microscope, and scores were assigned values between − and +++. Sample identifications were blinded for data collection.

The subject of series [3] is MOGp35-55-induced EAE in C57BL/6J mice. Nature of the series: Experimental autoimmune encephalitis (EAE) multiple sclerosis model. Here is the method: Experimental autoimmune encephalitis (EAE) is an induced autoimmunity in mice that mimics human multiple sclerosis, including autoantibody and cellular responses targeted against central nervous system antigens. To induce EAE, groups of 8 male C57BL/6J mice (Jackson Laboratories) were immunized subcutaneously on day 0 with the synthetic peptide MOGp35-55 (Becher et al. J. Clin. Invest. 112:1186-1191 (2003)), with amino acid sequence […] (SEQ ID NO:4) at a dose of 200 μg/mouse in complete Freund's adjuvant (CFA). At the same time the animals received pertussis toxin, i.p. at 30 ng/mouse. On day 2 the pertussis injection was repeated. On day 7 the mice were boosted with MOGp35-55, 200 μg/mouse in incomplete Freund's. Beginning on day 9 the mice were dosed daily by oral gavage with Compound 23 in water at 20 mg/kg or 60 mg/kg. Symptoms were scored by observing degree and location of paralysis of the tail and limbs, the average score for each group of 8 mice is shown.

Series [4] relates to MRL/lpr mice. Nature of the series: MRL/lpr spontaneous lupus model, Experiment 2. Conditions: 12 weeks, high dose (60 mg/kg p.o.). The method, then:
In this SLE experiment, dosing, groups were as described in Table 4 below. Two dose levels of Compound 23 were compared to HCQ and cyclophosphamide (Cytoxan®). HCQ and cyclophosphamide are currently used in the treatment of cutaneous and systemic lupus, respectively. […] Sera were assayed at a 1:600 dilution in PBS. (Mouse Anti-dsDNA Total Ig Qualitative ELISA kits, Alpha Diagnostic International). Dosing was conducted by either oral (p.o.) or intraperitoneal (i.p.) administration.

Regarding `CN(C)CCCOc1ccc(-c2nc3ccc(OCCCN(C)C)cc3o2)cc1` [Compound 2], the “paw swelling (arthritis score)” value is given as “not clear” in series [1] (60 mg/kg oral); “Suppression of paw swelling” in series [1] (6 and 20 mg/kg oral).

Consider `c1cc(-c2nc3ccc(OCCCN4CCCC4)cc3o2)ccc1OCCCN1CCCC1` [Compound 23], for which the “serum anti-dsDNA, mean OD450 versus vehicle” value is “statistical difference was still observed” in series [2] (MRL/lpr mice, 10 weeks of dosing) and “statistically significant suppression” in series [2] (MRL/lpr mice, 20 or 60 mg/kg oral, 7 weeks of dosing). In addition, in series [2] (MRL/lpr mice, 12 weeks and beyond), the “serum anti-dsDNA versus vehicle” value was “more similar to vehicle-treated animals”. Further, the “dosage-related toxicity (general appearance, body weight)” value in series [2] (MRL/lpr mice, 20 or 60 mg/kg oral) is “No evidence of dosage-related toxicity”. For the same compound, the “anti-nuclear antibody (ANA) development” value in series [2] (MRL/lpr mice, 20 or 60 mg/kg oral, 4, 10, 12 weeks of dosing) is “dose-dependent suppression of ANA development; also recorded: dose-dependent inhibition”. For the same compound, in series [2] (daily oral dosing with 60 and 20 mg/kg), the “anti-dsDNA in the MRL/lpr model of SLE (summary)” value is listed as “suppression of anti-dsDNA”. Besides, the “MOG-induced EAE symptom score compared to control mice” value in series [3] (20 mg/kg oral gavage daily from day 9) is given as “suppressed significantly”. For the same compound, the “MOG-induced EAE symptom score” value in series [3] (60 mg/kg oral gavage daily from day 9) is on record as “suppressed further”. The “difference in mean dsDNA level between vehicle and compound” value in series [4] is reported as “statistically significant difference”.
